IC50 and half-life data for 23 compounds are collected here from patent US20240376076A1, “INHIBITORS TARGETING UBIQUITIN SPECIFIC PROTEASE 7 (USP7)” (Dana-Farber Cancer Institute, Inc., priority 2021, published 2024).

Data set [1] has as its target T1, USP7, Active human recombinant protein (Homo sapiens, UniProt Q93009).
T1 construct: purchased CP Lot; 20200225001
In words: USP7 assay (Ubiquitin-Rhodamine 110 enzymatic assay). In kind it is biochemical. As to conditions: read-out: IC50. The protocol:
Enzymatic Assays with Exemplary USP7 Irreversible Inhibitors
(§1) ND refers to not disclosed.
USP7, Active human recombinant protein (CP, Lot. 20200225001), Ubiquitin-Rhodamine 110 (Rh110) (BostonBiochem, Cat. No. U-555), DMSO (Sigma, Cat. N34869), DTT (Sangon Biotech, Cat. No. A620058-0005), […] Tris pH 8.0 (Sigma, Cat. No. T2694-1L), Tween-20 (Sigma, Cat. No. P2287-100ML), EDTA (Invitrogen, Cat. No. 15575020, BSA (Sigma, Cat. No. B2064-100G), 384-well assay plate (Corning, Cat. No. 3573), Echo Qualified 384-Well Polypropylene Microplate 2.0, Clear, Flat Bottom (LABCYTE, Cat. No. 001-14555).
Dilute the compounds to 400× of the final desired highest inhibitor concentration in reaction by 100% DMSO. For all compounds, transfer the compounds to one well in a 384-well Echo plate and serially dilute the compound by 3-fold dilution of 100% DMSO in the next well and so forth for a total of 10 concentrations by Precision. Add 30 μL of 100% DMSO to two empty wells for no compound control and no enzyme control in the same 384-well Echo plate. Make the plate as a source plate.
For USP7 assay, transfer 50 nL of each well from the source plate to a 384-well assay plate (OptiPlate TM-384 F black assay plates) by Echo 550 Liquid Handler.
Added appropriate amount of USP7 in 1× assay Buffer to prepare 2× enzyme solution (USP7 final concentration: 0.05 nM). Added appropriate amount of Ubiquitin-Rhodamine 110 in 1× assay Buffer to prepare 2× substrate solution (Ubiquitin-Rhodamine 110 final concentration: 190 nM). Added 10 μL of 2× enzyme solution to each reaction well of the 384-well assay plate, except for control wells without enzyme (add 10 μL of 1× Assay Buffer instead as for low control). […] Transferred 2× substrate solution to the assay plate. Added 10 μL of 2× substrate solution to each well of the 384-well assay plate to start reaction. Centrifuged at 1000 rpm for 1 min. Read the plate kinetically on SpectraMax Paradigm for 20 min with excitation at 485 nm and emission at 535 nm. Copied raw data (slope) from Reader to obtain inhibition values in Excel using equation (1): […]
Max signal was obtained from the action of Enzyme and Substrate. Min signal was obtained from the Substrate only. To fit the data in XLFit excel add-in version 5.4.0.8 to obtain IC50 values used equation (2): […]
Y is % inhibition and X is compound concentration.

Data set [2] is described as follows: mouse liver microsomal stability (Microsome Assay Protocol). The class given is in vitro ADME. As to conditions: pH 7.4; mouse liver microsomes, NADPH, 37° C.; read-out: MLM t1/2, min. The procedure: as §1
• 1. Buffer A: 1.0 L of 0.1 M monobasic Potassium Phosphate buffer containing 1.0 mM EDTA Buffer B: 1.0 L of 0.1 M Dibasic Potassium Phosphate buffer containing 1.0 mM EDTA • Buffer C: 0.1 M Potassium Phosphate buffer, 1.0 mM EDTA, pH 7.4 by titrating 700 mL of buffer B with buffer A while monitoring with a pH meter. • 2. Reference compound (Ketanserin) and test compounds spiking solution: • 500 μM spiking solution: added 10 μL of 10 mM DMSO stock solution into 190 μL ACN. • 1.5 μM spiking solution in microsomes (0.75 mg/mL): added 1.5 μL of 500 μM spiking solution and 18.75 μL of 20 mg/mL liver microsomes into 479.75 μL of Buffer C on ice. • 3. Prepared NADPH stock solution (6 mM) by dissolving NADPH into buffer C. Dispensed 30 μL of 1.5 μM spiking solution containing 0.75 mg/mL microsomes solution to the assay plates designated for different time points (0-, 5-, 15-, 30-, 45-min) on ice. For 0-min, added 135 μL of ACN containing IS to the wells of 0-min plate and then added 15 μL of NADPH stock solution (6 mM). Pre-incubated all other plates at 37° C. for 5 minutes. Added 15 μL of NADPH stock solution (6 mM) to the plates to start the reaction and timing. At 5-min, 15-min, 30-min, and 45-min, added 135 μL of ACN containing IS to the wells of corresponding plates, respectively, to stop the reaction. After quenching, shook the plates at the vibrator (IKA, MTS 2/4) for 10 min (600 rpm/min) and then centrifuged at 5594 g for 15 min (Thermo Multifuge×3R). Transferred 50 μL of the supernatant from each well into a 96-well sample plate containing 50 μL of ultra pure water (Millipore, ZMQS50F01) for LC/MS analysis.
(Liver microsomes are a subcellular fraction often used to study metabolism.)

T1 sequence (Q93009 whole entry): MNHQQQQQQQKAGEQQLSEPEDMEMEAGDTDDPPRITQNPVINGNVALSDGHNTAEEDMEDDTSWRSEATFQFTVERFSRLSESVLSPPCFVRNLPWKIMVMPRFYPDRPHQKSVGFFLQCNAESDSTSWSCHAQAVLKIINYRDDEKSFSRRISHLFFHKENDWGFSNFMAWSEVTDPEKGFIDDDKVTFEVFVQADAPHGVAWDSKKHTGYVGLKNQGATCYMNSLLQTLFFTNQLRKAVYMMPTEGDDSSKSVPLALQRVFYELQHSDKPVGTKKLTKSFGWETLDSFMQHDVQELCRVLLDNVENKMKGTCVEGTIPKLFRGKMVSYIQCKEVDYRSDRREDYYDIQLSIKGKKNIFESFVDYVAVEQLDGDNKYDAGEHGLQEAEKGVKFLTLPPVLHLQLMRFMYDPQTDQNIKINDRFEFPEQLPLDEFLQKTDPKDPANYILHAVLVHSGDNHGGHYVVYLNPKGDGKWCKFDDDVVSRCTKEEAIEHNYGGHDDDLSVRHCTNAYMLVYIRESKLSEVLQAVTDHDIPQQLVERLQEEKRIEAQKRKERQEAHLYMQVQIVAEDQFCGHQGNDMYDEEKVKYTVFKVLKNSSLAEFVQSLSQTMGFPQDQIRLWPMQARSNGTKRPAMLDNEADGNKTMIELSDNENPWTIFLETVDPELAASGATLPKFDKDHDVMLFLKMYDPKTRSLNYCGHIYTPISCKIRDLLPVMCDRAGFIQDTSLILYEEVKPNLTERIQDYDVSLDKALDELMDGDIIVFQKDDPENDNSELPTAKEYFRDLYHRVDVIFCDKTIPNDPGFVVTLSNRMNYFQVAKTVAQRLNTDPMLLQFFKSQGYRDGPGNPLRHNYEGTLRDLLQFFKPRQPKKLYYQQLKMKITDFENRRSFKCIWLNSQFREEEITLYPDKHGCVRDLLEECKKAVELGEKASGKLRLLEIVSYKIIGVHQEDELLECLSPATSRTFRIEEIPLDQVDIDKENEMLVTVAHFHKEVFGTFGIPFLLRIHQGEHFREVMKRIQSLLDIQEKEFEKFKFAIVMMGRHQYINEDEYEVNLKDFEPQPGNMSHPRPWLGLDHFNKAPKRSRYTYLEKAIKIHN

For the compound `CN(C)CCCOc1ccc2c(=O)n(CC3(O)CCN(C(=O)C(CCNC(=O)c4ccc5c(Cl)c(C(N)=O)cnc5c4)Cc4ccccc4)CC3)cnc2c1` (centres unmarked), the IC50 (commonly the concentration that inhibits the measured activity by half) in data set [1] is less than 20 nM. The half-life at 1 µM in data set [2] is 28.2 min.
In the case of `CN(C)CCCOc1ccc2c(=O)n(CC3(O)CCN(C(=O)C(Cc4ccccc4)N(C)CCNC(=O)c4ccc5c(Cl)c(C(N)=O)cnc5c4)CC3)cnc2c1` (centres unmarked), the 50% inhibitory concentration (IC50) in data set [1] is less than 20 nM. Also, the half-life at 1 µM in data set [2] was 36.4 min.
With `CN(C)CCCOc1ccc2c(=O)n(CC3(O)CCN(C(=O)C(Cn4ccc(F)n4)N(C)CCNC(=O)c4ccc5c(Cl)c(C(N)=O)cnc5c4)CC3)cnc2c1` (centres unmarked), the IC50 in data set [1] lay within 20 to 100 nM. The half-life at 1 µM in data set [2] worked out at 106 min.
For `CN(C)CCCOc1ccc2c(=O)n(CC3(O)CCN(C(=O)[C@H](CCCNC(=O)c4ccc5c(Cl)c(C6CC6)cnc5c4)Cc4ccccc4)CC3)cnc2c1`, in that order: less than 20 nM and 31.9 min.
In the case of `CN(C)CCCOc1ccc2c(=O)n(CC3(O)CCN(C(=O)C(Cc4ccccc4)N(C)CCNC(=O)c4ccc5c(Cl)c(C(=O)NC6CC6)cnc5c4)CC3)cnc2c1` (centres unmarked), in data set [1], the IC50 was 20 to 100 nM. Moreover, the half-life at 1 µM in data set [2] was 46.5 min.
For `CN1CCN(CCC(=O)Nc2ccc3c(=O)n(CC4(O)CCN(C(=O)C(CCCNC(=O)c5ccc6c(Cl)cc(-c7cnn(CC(F)(F)F)c7)nc6c5)Cc5ccccc5)CC4)cnc3c2)CC1` (centres unmarked) [Compound 18, N-(4-benzyl-5-(4-hydroxy-4-((7-(3-(4-methylpiperazin-1-yl)propanamido)-4-oxoquinazolin-3(4H)-yl)methyl)piperidin-1-yl)-5-oxopentyl)-4-chloro-2-(1-(2,2,2-trifluoroethyl)-1H-pyrazol-4-yl)quinoline-7-carboxamide] the same measures were 20 to 100 nM and 21.2 min.
For `CN(C)CCC(=O)Nc1ccc2c(=O)n(CC3(O)CCN(C(=O)C(CCCNC(=O)c4ccc5c(Cl)c6c(nc5c4)COCC6)Cc4ccccc4)CC3)cnc2c1` (centres unmarked) [Compound 89], in data set [1], the IC50 was 20 to 100 nM. The half-life at 1 µM in data set [2] amounted to 3.34 min.
Regarding `CNc1cc(Cl)c2ccc(C(=O)NCCCC(Cc3ccccc3)C(=O)N3CCC(O)(Cn4cnc5cc(NC(=O)CCN(C)C)ccc5c4=O)CC3)cc2n1` (centres unmarked) [Compound 69], the IC50 in data set [1] was greater than 1000 nM. The half-life at 1 µM in data set [2] was found to be 4.5 min.
With `CN(C)CCCOc1ccc2c(=O)n(CC3(O)CCN(C(=O)C(CCCNC(=O)c4ccc5c(Cl)c6c(nc5c4)CCN(C)C6=O)Cc4ccccc4)CC3)cnc2c1` (centres unmarked), the IC50 in data set [1] is 20 to 100 nM. The half-life at 1 µM in data set [2] stood at 14.4 min.
Consider `CN(C)CCC(=O)Nc1ccc2c(=O)n(CC3(O)CCN(C(=O)c4cn(CCNC(=O)c5ccc6c(Cl)ccnc6c5)nc4Cc4ccccc4)CC3)cnc2c1` [Compound 52, N-(2-(3-benzyl-4-(4-((7-(3-(dimethylamino)propanamido)-4-oxoquinazolin-3(4H)-yl)methyl)-4-hydroxypiperidine-1-carbonyl)-1H-pyrazol-1-yl)ethyl)-4-chloroquinoline-7-carboxamide], for which, in data set [1], the IC50 lay within 100 to 1000 nM. Moreover, the half-life at 1 µM in data set [2] stood at 15.1 min.
Regarding `CN(C)CCCOc1ccc2c(=O)n(CC3(O)CCN(C(=O)C(CCCNC(=O)c4ccc5c(Cl)c6c(nc5c4)CN(C)C6=O)Cc4ccccc4)CC3)cnc2c1` (centres unmarked), the IC50 in data set [1] was less than 20 nM. Besides, the half-life at 1 µM in data set [2] turned out to be 11.3 min.
With `CN1CCN(CCn2cc3ncn(CC4(O)CCN(C(=O)C(CCCNC(=O)c5ccc6c(Cl)ccnc6c5)Cc5ccccc5)CC4)c(=O)c3n2)CC1` (centres unmarked) [Compound 27], the IC50 in data set [1] was greater than 1000 nM. For the same compound, the half-life at 1 µM in data set [2] stood at 20 min.
For `CN(C)CCCNc1cc2ncn(CC3(O)CCN(C(=O)[C@@H](CCCNC(=O)c4ccc5c(Cl)cc(C6CC6)nc5c4)Cc4ccccc4)CC3)c(=O)c2cc1F` the same measures were less than 20 nM and 18.6 min.
For `CN1CCN(CCC(=O)Nc2ccc3c(=O)n(CC4(O)CCN(C(=O)C(CCCNC(=O)c5ccc6c(Cl)cc(-c7ccc(F)cc7)nc6c5)Cc5ccccc5)CC4)cnc3c2)CC1` (centres unmarked) the same measures were 100 to 1000 nM and 22.7 min.
For `CN(C)CCC(=O)Nc1ccc2c(=O)n(CC3(O)CCN(C(=O)C(CCCNC(=O)c4ccc5c(Cl)ccnc5c4)Cc4ccc(F)cc4)CC3)cnc2c1` (centres unmarked) [Compound 81] the same measures were 20 to 100 nM and 11.8 min.
Turning to `CN(C)CCCOc1ccc2c(=O)n(CC3(O)CCN(C(=O)[C@H](CCCNC(=O)c4ccc5c(Cl)c6c(nc5c4)CC(C)(C)C6)Cc4ccccc4)CC3)cnc2c1` [Compound 121], the IC50 in data set [1] was less than 20 nM. The half-life at 1 µM in data set [2] is 6 min.
For `Nc1ccc(-n2ncc3c(=O)n(CC4(O)CCN(C(=O)C(CCCNC(=O)c5ccc6c(Cl)ccnc6c5)Cc5ccccc5)CC4)cnc32)cc1` (centres unmarked) [Compound 7, N-(5-(4-((1-(4-aminophenyl)-4-oxo-1,4-dihydro-5H-pyrazolo[3,4-d]pyrimidin-5-yl)methyl)-4-hydroxypiperidin-1-yl)-4-benzyl-5-oxopentyl)-4-chloroquinoline-7-carboxamide] the same measures were less than 20 nM and 4.3 min.
For `CN(C)CCCOc1ccc2c(=O)n(CC3(O)CCN(C(=O)[C@@H](CCCNC(=O)c4ccc5c(Cl)c(C(N)=O)cnc5c4)Cc4ccccc4)CC3)cnc2c1`, in that order: less than 20 nM and 30.2 min.
As to `CN1CCN(CCC(=O)Nc2ccc3c(=O)n(CC4(O)CCN(C(=O)C(CCCNC(=O)c5ccc6c(Cl)cc(-c7cccnc7)nc6c5)Cc5ccccc5)CC4)cnc3c2)CC1` (centres unmarked) [Compound 14, N-(4-benzyl-5-(4-hydroxy-4-((7-(3-(4-methylpiperazin-1-yl)propanamido)-4-oxoquinazolin-3(4H)-yl)methyl)piperidin-1-yl)-5-oxopentyl)-4-chloro-2-(pyridin-3-yl)quinoline-7-carboxamide], in data set [1], the IC50 was 100 to 1000 nM.
Same read-out and setting: next, `CN(C)CCOc1ccc2ncn(CC3(O)CCN(C(=O)C(CCCNC(=O)c4ccc5c(Cl)ccnc5c4)Cc4ccccc4)CC3)c(=O)c2c1` (centres unmarked) [Compound 39, N-(4-benzyl-5-(4-((6-(2-(dimethylamino)ethoxy)-4-oxoquinazolin-3(4H)-yl)methyl)-4-hydroxypiperidin-1-yl)-5-oxopentyl)-4-chloroquinoline-7-carboxamide]: greater than 1000 nM.
The same measure, in the same setting: next, `CN(C)CCC(=O)Nc1ccc2c(=O)n(CC3(O)CCN(C(=O)[C@@H]4CN(CCNC(=O)c5ccc6c(Cl)ccnc6c5)C[C@H]4c4ccccc4)CC3)cnc2c1` [Compound 76]: 100 to 1000 nM; `CN1CCN(CCC(=O)Nc2ccc3c(=O)n(CC4(O)CCN(C(=O)[C@H](CCCNC(=O)c5ccc6c(Cl)ccnc6c5)Cc5ccccc5)CC4)cnc3c2)CC1` [Compound 58, (R)—N-(4-benzyl-5-(4-hydroxy-4-((7-(3-(4-methylpiperazin-1-yl)propanamido)-4-oxoquinazolin-3(4H)-yl)methyl)piperidin-1-yl)-5-oxopentyl)-4-chloroquinoline-7-carboxamide]: greater than 1000 nM; `COc1cc2c(=O)n(CC3(O)CCN(C(=O)[C@H](CCCNC(=O)c4ccc5c(Cl)cc(C6CC6)nc5c4)Cc4ccccc4)CC3)cnc2cc1OCCCN(C)C` [Compound 138]: 20 to 100 nM.
